For series [1] the following is noted: conscious dogs; cited from earlier work.
For a further series, the system named is hepatocytes. Conditions: cited from earlier work.
For series [2] the following is noted: db/db and ob/ob mice; cited from earlier work.
For series [3], the target named is T1, Human recombinant liver glycogen phosphorylase a (hrl GPa) (Homo sapiens, UniProt P06737).
T1 sequence (P06737 1-847): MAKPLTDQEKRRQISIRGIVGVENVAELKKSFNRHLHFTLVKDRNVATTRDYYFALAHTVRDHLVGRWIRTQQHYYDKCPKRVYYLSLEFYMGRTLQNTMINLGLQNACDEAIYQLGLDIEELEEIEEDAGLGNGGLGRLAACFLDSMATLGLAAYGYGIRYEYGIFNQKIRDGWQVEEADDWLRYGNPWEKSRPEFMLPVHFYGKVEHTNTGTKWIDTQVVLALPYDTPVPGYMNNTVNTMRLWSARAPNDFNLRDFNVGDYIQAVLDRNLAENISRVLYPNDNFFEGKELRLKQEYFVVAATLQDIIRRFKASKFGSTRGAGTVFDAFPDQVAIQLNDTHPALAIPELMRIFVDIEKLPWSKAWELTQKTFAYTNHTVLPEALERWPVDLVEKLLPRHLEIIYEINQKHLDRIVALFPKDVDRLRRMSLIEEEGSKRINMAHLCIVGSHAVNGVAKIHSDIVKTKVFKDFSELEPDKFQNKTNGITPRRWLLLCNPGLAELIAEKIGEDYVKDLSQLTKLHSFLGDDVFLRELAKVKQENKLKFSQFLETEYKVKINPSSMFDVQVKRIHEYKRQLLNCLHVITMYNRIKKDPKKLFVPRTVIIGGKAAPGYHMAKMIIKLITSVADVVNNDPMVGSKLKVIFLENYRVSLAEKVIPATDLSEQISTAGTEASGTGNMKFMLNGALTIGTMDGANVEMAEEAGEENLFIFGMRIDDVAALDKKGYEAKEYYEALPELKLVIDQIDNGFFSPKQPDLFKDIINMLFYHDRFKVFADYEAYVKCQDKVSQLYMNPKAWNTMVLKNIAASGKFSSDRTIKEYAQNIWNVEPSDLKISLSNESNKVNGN
Briefly: glycogen phosphorylase a multienzyme coupled assay. Particulars: hrl GPa 20 nM, 8 mM glucose, pH7.2, 6 hours at 30° C. Type of series: biochemical. The protocol:
The activity of the compounds is determined by measuring the inhibitory effect of the compounds on glycogen degradation, the production of glucose-1-phosphate from glycogen is monitored by the multienzyme coupled assay, as described in EP 0 846 464 A2, general method of Pesce et al (Pesce, M A, Bodourian, S H, Harris, R C, and Nicholson, J F (1977) Clinical Chemistry 23, […]). The reactions were in 384well microplate format in a volume of 50 μl. The change in fluorescence due to the conversion of the co-factor NAD to NADH is measured at 340 nm excitation, 465 nm emission in a Tecan Ultra Multifunctional Microplate Reader. The reaction is in 50 mM HEPES, 3.5 mM KH2PO4, 2.5 mM MgCl2, 2.5 mM ethylene glycol-bis(b-aminoethyl ether) N,N,N′,N′-tetraacetic acid, 100 mM KCl, 8 mM D-(+)-glucose pH7.2, containing 0.5 mM dithiothreitol, the assay buffer solution. Human recombinant liver glycogen phosphorylase a (hrl GPa) 20 nM is pre-incubated in assay buffer solution with 6.25 mM NAD, 1.25 mg type III glycogen at 1.25 mg m^−1 the reagent buffer, for 30 minutes. […] The non-inhibited activity of GPa is measured in the presence of 10 μl 5% DMSO in assay buffer solution and maximum inhibition measured in the presence of 5 mgs ml^−1 N-ethylmaleimide. […] Relative Fluoresence Units (RFUs) are measured at 340 nm excitation, 465 nm emission. […]
Activity is calculated as follows:—

Molecules are shown by their SMILES.

With `CCN1C(C)=C(C(=O)OC(C)C)C(c2ccccc2Cl)C2=C1COC2=O` (stereo not shown) [Bay R 3401], the “hepatic glucose output and arterial plasma glucose following a glucagon challenge” value in series [1] is “reduced significantly”.
Turning to `CN(C)C(=O)[C@H](O)[C@H](Cc1ccccc1)NC(=O)c1cc2cc(Cl)ccc2[nH]1` [CP91149], the “glucagon stimulated glycogenolysis and glucose output in hepatocytes” value in the series on hepatocytes is “reduce”. In series [2], the plasma glucose concentration entry was “reduced, in a dose related manner”.
Turning to `O=C(N[C@@H](Cc1ccc(F)cc1)C(=O)N1CCC(O)CC1)c1cc2cc(Cl)ccc2[nH]1` [CP320626], the “glucagon stimulated glycogenolysis and glucose output in hepatocytes” value in the series on hepatocytes is recorded as “reduce”. Moreover, in series [2], the plasma glucose concentration result was “reduced, in a dose related manner”.
Consider `O=C(O)COC[C@@H]1c2ccccc2C[C@H]1NC(=O)c1cc2cc(Cl)sc2[nH]1` [Example 1, [((1R,2R)-2-{[(2-Chloro-6H-thieno[2,3-b]pyrrol-5-yl)carbonyl}amino]-2,3-dihydro-1H-inden-1-yl)methoxy]acetic acid], for which the IC50 in series [3] stood at 0.191 µM.
For `O=C(O)C[C@@H]1c2ccccc2C[C@H]1NC(=O)c1cc2sc(Cl)c(Cl)c2[nH]1` [Example 8, ((1R,2R)-2-{[(2,3-Dichloro-4H-thieno[3,2-b]pyrrol-5-yl)carbonyl]amino}-2,3-dihydro-1H-inden-1-yl)acetic acid], in series [3], the IC50 is 0.014 µM.

The values are drawn from patent US20100137397A1, “Chemical Compounds” (ASTRAZENECA AB, priority 2005, published 2010).
